Source: patent US7342018B2, “Urokinase inhibitors and uses thereof” (Wilex AG, priority 1998, dated 2008)

Columns and labels:
Plasmin = target: T1, Plasmin (Homo sapiens, UniProt P00747); experiment: In vitro inhibition of serine proteases: plasmin; assay type: biochemical
T1 construct: uPA mediates the proteolytic cleavage of plasminogen to give plasmin
Description: (§1) Ki values were determined according to Dixon by linear regression using a computer program.

Factor Xa = Factor Xa (Homo sapiens, UniProt P00742); experiment: In vitro inhibition of serine proteases: factor Xa; assay type: biochemical
Description: as §1

Tryptase = Tryptase (Homo sapiens, UniProt Q15661); experiment: In vitro inhibition of serine proteases: tryptase; assay type: biochemical
Description: To determine the inhibitory activity, 200 μl of Tris buffer (0.05 mol/l, containing the inhibitor, 0.154 mol/l NaCl, 5% ethanol pH 8.0), 25 μl of substrate (Pefachrome UK or Bz-βAla-Gly-Arg-pNA in H2O; Pentapharm Ltd., Basle, Switzerland) and 50 μl of sc-urokinase (Ribosepharm GmbH, Haan, Germany) were incubated at 25° C. After 3 min the reaction was stopped by adding 25 μl of acetic acid (50%), and the absorption at 405 nm was determined by means of a Microplate Reader (MR 5000, Dynatech, Denkendorf, Germany). Ki values were determined according to Dixon by linear regression using a computer program. The Ki values are the mean values of at least three determinations with a standard deviation of less than 25%.
The inhibition activities of the enzymes used were determined according to the principle described in Example 3.

[1] = system: pancreatic adenocarcinoma CA20948; experiment: Pancreatic carcinoma model in rats; assay type: in vivo, rat; settings: for mass of the tumor-containing pancreas, reduced by % / masses of the subcutaneous tumors, reduced by %: vs vehicle-treated group
Description: Fragments of the transplantable and metastasizing pancreatic adenocarcinoma CA20948 from rats were explanted from donor animals. After cell isolation, equal amounts of suspended tumor cells together with 2 mg of Matrigel were subcutaneously implanted into each of the acceptor animals, male 10 week-old Lewis rats (n=9). The treatment procedure and also the composition of the therapy groups were the same as under A).
The experiments described in sections A and B were repeated with the inhibitor administered in a different way. For this, the inhibitor was administered subcutaneously in the breast carcinoma model (n=9) and intraperitoneally in the pancreatic adenocarcinoma model (n=8) without changing the daily dose. The results of these repeat experiments corresponded to the results already discussed, both in tendency and extent.

[2] = Phase I clinical trial in healthy male volunteers (WX/50-001); assay type: in vivo, human; settings: for tolerability: all dose levels
Description: In the first clinical trial with WX-UK1 (WX/50-001) the drug was investigated in a double-blind, randomized, three-way cross-over, placebo controlled phase I study focussing on pharmacokinetics, pharmacodynamics, safety, and tolerability of increasing doses of WX-UK1.
In this study six ascending i.v. Doses of WX-UK1 in the range of 0.01 to 0-3 mg/kg were administered and each dose was given to groups of six healthy male volunteers.

[3] = Solubility in Tris buffer; settings: Tris buffer (pH 7.3)
[4] = 1 mg/kg daily, vs naphthyl derivative and control (FIG. 5)

Sequence of Factor Xa (P00742 235-488 limits assumed): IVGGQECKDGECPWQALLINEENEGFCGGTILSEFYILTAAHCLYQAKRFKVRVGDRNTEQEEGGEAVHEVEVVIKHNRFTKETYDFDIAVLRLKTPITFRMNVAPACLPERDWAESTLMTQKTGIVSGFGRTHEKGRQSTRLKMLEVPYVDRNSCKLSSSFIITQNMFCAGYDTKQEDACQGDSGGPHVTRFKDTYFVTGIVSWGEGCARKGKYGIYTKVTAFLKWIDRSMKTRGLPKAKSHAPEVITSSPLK
Sequence of Factor Xa (P00742 41-179 partner limits assumed): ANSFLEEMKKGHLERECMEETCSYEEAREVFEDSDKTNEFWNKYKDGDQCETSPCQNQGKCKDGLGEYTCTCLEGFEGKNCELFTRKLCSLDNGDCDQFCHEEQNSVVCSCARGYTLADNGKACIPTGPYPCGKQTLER
Sequence of Tryptase (Q15661 31-275): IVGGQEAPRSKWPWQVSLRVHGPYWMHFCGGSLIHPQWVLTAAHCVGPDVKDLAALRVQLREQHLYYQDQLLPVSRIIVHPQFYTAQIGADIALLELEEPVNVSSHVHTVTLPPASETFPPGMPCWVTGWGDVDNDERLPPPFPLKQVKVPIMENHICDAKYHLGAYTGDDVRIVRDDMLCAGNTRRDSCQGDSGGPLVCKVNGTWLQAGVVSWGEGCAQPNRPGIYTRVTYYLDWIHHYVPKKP
T1 sequence (P00747 581-810 limits assumed, species assumed): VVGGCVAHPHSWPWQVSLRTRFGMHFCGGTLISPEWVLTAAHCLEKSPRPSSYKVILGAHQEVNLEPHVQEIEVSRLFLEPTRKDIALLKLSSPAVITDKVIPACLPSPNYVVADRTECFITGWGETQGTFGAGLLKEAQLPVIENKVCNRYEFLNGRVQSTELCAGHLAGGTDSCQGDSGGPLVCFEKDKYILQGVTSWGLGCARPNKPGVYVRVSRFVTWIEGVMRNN
T1 sequence (P00747 97-580 partner limits assumed, species assumed): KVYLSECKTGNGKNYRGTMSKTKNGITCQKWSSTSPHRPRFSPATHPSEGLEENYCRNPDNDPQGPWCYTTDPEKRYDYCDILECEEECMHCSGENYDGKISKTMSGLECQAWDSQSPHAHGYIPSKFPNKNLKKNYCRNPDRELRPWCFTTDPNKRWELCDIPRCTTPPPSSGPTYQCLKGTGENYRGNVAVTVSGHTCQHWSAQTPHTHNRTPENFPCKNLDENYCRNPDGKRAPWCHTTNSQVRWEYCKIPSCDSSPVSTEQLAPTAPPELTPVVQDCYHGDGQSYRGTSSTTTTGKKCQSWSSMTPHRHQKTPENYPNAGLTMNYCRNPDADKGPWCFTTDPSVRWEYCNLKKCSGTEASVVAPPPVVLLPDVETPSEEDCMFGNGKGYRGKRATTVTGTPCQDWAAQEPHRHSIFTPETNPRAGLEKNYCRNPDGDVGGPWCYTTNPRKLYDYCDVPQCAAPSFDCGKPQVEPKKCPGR

CCOC(=O)N1CCN(C(=O)[C@H](Cc2cccc(C(=N)N)c2)NS(=O)(=O)c2c(C(C)C)cc(C(C)C)cc2C(C)C)CC1.Cl [uPA inhibitor, Nα-2,4,6-Triisopropylphenylsulfonyl-(L)-3-amidinophenylalanine 4-ethoxycarbonylpiperazide hydrochloride]
Ki (Plasmin): 390 nM
Ki (Factor Xa): 1700 nM
Ki (Tryptase): 6300 nM
growth of developing rat pancreatic carcinomas [1, 4]: decrease
tumor weight [1, 4]: significant reduction
number of detected liver foci, % compared to vehicle-treated control ([1]; i.p., 1 mg/kg daily): 29%
mass of the tumor-containing pancreas, reduced by % ([1]; i.p., 1 mg/kg daily): 76%
masses of the subcutaneous tumors, reduced by % ([1]; i.p., 1 mg/kg daily): 54%
number of metastatic liver foci ([1]; rat pancreatic cancer model, vs vehicle-treated controls): substantially reduced
number of detected liver foci, % compared to vehicle-treated control ([1]; s.c., 1 mg/kg daily): 2%
mass of the tumor-containing pancreas, reduced by % ([1]; s.c., 1 mg/kg daily): 34%
masses of the subcutaneous tumors, reduced by % ([1]; s.c., 1 mg/kg daily): 60%
changes in vital signs, ECG parameters, general safety laboratory parameters and adverse event profiles ([2]; attributable to the study drug): No changes
mean increases of coagulation parameters PT, aPTT and TT ([2]; doses of 0.05 mg/kg and higher, end of infusion, 0-5% with placebo): 6-13%
dose proportionality in PK studies ([2]; healthy volunteers): good dose proportionality
systemic and local safety profile ([2]; healthy volunteers): advantageous systemic and local safety profile
bleeding times ([2]; human, in vivo): unchanged
drug-induced hemolysis ([2]; human, in vivo): no indication
time for coagulation parameters to return to baseline ([2]; human, in vivo): ≤ 15 min
time of maximum plasma concentrations ([2]; i.v. infusion (FIG. 10)): at the end of the 30 min. infusion period
mean terminal half lives ([2]; i.v. infusion, healthy male volunteers): 10 to 12 h
tolerability ([2]; i.v. infusion, healthy volunteers, listed as WK-UK1, hydrochloride): well tolerated
tolerability ([2]; i.v. infusion, healthy volunteers, listed as WX-UK1, hydrochloride): very well tolerated
renal excretion of the parent compound ([2]; share of the dose): less then one percent
solubility ([3]; addition of 5% DMSO): 10^−3 mol/l
solubility ([3]; addition of 5% ethanol): 2×10^−4 moll
